The record followed here is ChEMBL document CHEMBL3045876, “Molecular modeling studies and synthesis of novel quinoxaline derivatives with potential anti-cancer activity as inhibitors of methionine synthase” (Med Chem Res, 2013).

Structures are written as SMILES.

In assay [1] the target is Methionine synthase (Homo sapiens) (UniProt Q99707). In words: Inhibition of methionine synthase (unknown origin) by cell free assay. The conditions noted are these: concentration not given here. Also on record: concentration or dose not given beside the values.
The subject of a further assay is PC-3. In words: Cytotoxicity against Homo sapiens (human) PC3 cells after 96 hr by MTT assay. It is filed as functional, cell-based. The conditions noted are these: PC-3, 96 h.
The test system of a further assay is MCF7. Nature of the assay: Cytotoxicity against Homo sapiens (human) MCF7 cells after 96 hr by MTT assay. Type of assay: functional, cell-based. The conditions noted are these: MCF7, 96 h. (Tetrazolium dyes change colour on reduction, which living cells bring about.)

Sequence of Methionine synthase (Homo sapiens) (Q99707 whole entry): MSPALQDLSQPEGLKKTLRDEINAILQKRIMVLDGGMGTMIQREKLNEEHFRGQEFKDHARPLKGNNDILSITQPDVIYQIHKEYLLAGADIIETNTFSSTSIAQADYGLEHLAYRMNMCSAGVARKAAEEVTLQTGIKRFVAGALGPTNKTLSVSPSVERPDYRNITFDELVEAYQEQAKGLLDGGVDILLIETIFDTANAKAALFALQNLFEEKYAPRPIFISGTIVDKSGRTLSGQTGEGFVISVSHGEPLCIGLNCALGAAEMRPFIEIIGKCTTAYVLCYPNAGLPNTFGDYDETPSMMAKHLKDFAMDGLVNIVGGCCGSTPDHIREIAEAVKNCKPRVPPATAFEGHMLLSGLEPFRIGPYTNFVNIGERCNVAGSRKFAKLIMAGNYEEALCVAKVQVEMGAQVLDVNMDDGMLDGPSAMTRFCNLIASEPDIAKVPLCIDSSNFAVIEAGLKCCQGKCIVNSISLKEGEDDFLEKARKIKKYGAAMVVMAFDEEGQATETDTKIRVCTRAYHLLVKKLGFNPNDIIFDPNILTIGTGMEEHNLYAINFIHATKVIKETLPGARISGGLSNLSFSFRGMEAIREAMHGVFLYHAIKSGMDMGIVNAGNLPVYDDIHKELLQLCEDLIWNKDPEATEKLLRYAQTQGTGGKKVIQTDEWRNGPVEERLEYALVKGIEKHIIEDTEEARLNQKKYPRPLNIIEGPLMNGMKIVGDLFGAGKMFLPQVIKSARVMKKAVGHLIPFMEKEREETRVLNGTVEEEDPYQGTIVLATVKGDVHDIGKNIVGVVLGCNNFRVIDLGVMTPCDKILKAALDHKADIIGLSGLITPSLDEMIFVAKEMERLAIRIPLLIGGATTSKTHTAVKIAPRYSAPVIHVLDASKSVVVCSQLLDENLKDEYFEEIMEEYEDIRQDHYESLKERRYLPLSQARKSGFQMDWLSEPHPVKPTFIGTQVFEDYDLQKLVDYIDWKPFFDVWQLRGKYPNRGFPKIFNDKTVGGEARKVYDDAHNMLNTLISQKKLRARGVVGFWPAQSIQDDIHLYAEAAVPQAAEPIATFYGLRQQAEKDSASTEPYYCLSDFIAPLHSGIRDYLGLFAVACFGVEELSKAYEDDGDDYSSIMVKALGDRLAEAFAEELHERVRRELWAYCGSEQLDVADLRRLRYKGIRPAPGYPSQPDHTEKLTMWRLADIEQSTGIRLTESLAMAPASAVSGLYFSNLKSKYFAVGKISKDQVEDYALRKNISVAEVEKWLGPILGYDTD

The compound `O=[N+]([O-])c1ccc2nc(CNc3ccc(Cl)cc3)cnc2c1` gave an inhibition in assay [1] of 45%. Also, the IC50 amounted to 70 µM with PC-3 and 75 µM in the assay with MCF7.

In the case of `CCNC(=O)c1ccc(NCc2cnc3cc([N+](=O)[O-])ccc3n2)cc1`, the IC50 in the assay with PC-3 worked out at 66 µM; in the assay with MCF7, 49 µM.

Compound `O=C(O)c1ccc(NCc2cnc3cc([N+](=O)[O-])ccc3n2)cc1` showed an inhibition in assay [1] of 89%. Besides, the IC50 was 45 µM in the assay with PC-3 and 53 µM with MCF7.

As to `CNC(=O)c1ccc(NCc2cnc3cc([N+](=O)[O-])ccc3n2)cc1`, the results for the IC50 with PC-3 and with MCF7 were 49 µM and 47 µM, respectively.

In the case of `O=[N+]([O-])c1ccc2nc(CCl)cnc2c1`, the inhibition in assay [1] worked out at 55%. The IC50 with PC-3 came to 70 µM; with MCF7, 66 µM.

Consider `Cc1cccc(NCc2cnc3cc([N+](=O)[O-])ccc3n2)c1`, for which the inhibition in assay [1] is 45%. In addition, the IC50 with PC-3 was determined as 77 µM; in the assay on MCF7, 79 µM.

Take `O=[N+]([O-])c1ccc2nc(CNc3ccccc3)cnc2c1`: the inhibition in assay [1] was found to be 65.9%. Moreover, the results for the IC50 with PC-3 and in the assay on MCF7 were 56 µM and 61 µM, respectively.

The compound `Cc1ccc(NCc2cnc3cc([N+](=O)[O-])ccc3n2)cc1` yielded an inhibition in assay [1] of 65%. Besides, the IC50 in the assay on PC-3 turned out to be 57 µM; in the assay with MCF7 it was 68 µM.

The inhibition is the share of the control response that was lost under treatment. By IC50 is commonly meant the concentration that gives 50% inhibition.
